Source: patent US8680113B2, “BMI-1 protein expression modulators” (PTC Therapeutics, Inc., priority 2008, dated 2014)

Test system: Bmi-1
Assay: Sandwich ELISA Assay (Bmi-1 ELISA in HT-1080 cells)
Type: cell-based, human
Experimental: Cell Seeding and Compound Treatment (Day 1):
HT-1080 cells were seeded at 8000 cells/well (50 uL) in 96-well tissue culture plates. After the cells become adherent (3-4 hours), 2× diluted stocks of compounds in 50 uL DMEM containing 1% DMSO (final DMSO concentration was 0.5%) were added and the plates were incubated at 37° C. under 5% CO2 for 40-48 hours
ELISA Plate First Antibody Preparation (Day 2):
The First Antibody (Millipore Mouse, monoclonal to mouse Bmi-1, clone F6, catalog #05-637) diluted to 2 ug/mL in PBS was added (100 uL) to each well of a Nunc MaxiSorp 96-well ELISA plate. The plate was covered with a plate seal and allowed to stand overnight.
Cell Lysate Preparation (Day 3):
Fresh 1× Lysis buffer was prepared on the day of the assay as follows: 1 mM EDTA, 150 mM NaCl, 0.5% Triton-X 100, 10 mM NaF, 20 mM B-Glycerophosphate, 1 mM DTT (in PBS, pH 7.2-7.4) and 1×HALT protease inhibitor cocktail (Pierce #78410).
1× Lysis Buffer (40 uL) was added to each well and the plate was shaken for 5-10 minutes on an orbital shaker to allow cell lysis, then Diluent (1% BSA in PBS in 0.5% NP40) (100 uL) was added to each well.
The Bmi-1 standard curve was prepared in Diluent at the following concentrations of protein: 8000, 4000, 2000, 1000, 500, 250, 125, 0 pg/mL The Bmi-1 Recombinant Protein Standard (Novus Biologicals PCGF4 Recombinant Protein (P01), catalog #H00000648-P01) used in the standard curve was stored at −80° C., and on first thaw, diluted to 10 ug/uL in Blocking Buffer (1% BSA in PBS; BSA: Fisher Scientific Catalog #1600-100) before being aliquoted and refrozen at −80° C. Aliquots can be kept at 4° C. and reused after first thaw, but only for 1-2 weeks. The Bmi-1 Recombinant Protein Standard contains a GST-fusion tag and thus will show up on western blots around 70 Kda.
The prepared ELISA plate was washed 3× with Wash Buffer (0.05% Tween-20 in PBS). The final wash was removed from the plate and the plate was blotted dry on paper towels. Blocking Buffer (300 uL) (1% BSA in PBS) was added per well. The plate was covered with a plate seal and incubated at room temperature for 1 hour. The blocked plate was washed 3× with Wash Buffer, the final wash was removed and the plate was blotted dry on paper towels. The previously prepared samples and standards were added (at 100 uL/well) and the plate was covered with a plate seal and incubated at 4° C. overnight.
The prepared ELISA plate was removed from 4° C., incubated at room temperature for 30 minutes, then washed and blotted dry as previously described for Day 3. The Second Antibody (Cell Signaling Rabbit anti-Bmi-1, Cat#2830) diluted to 1:600 in Blocking Buffer was added (100 uL) to each well, except as needed for background control wells. The plate was covered with a plate seal and incubated for 1.5 hrs at room temperature.
The ELISA plate was washed and blotted dry as previously described. The Third Antibody (Cell Signaling HRP conjugated anti-rabbit IgG (CellSignaling, Cat#:7074) diluted to 1:300 in Blocking Buffer was added (100 uL) to each well, except as needed for background control wells. The plate was incubated for 1 hr at room temperature.
The plate was washed and blotted dry as previously described, then prepared TMB substrate (TMB substrate kit, Pierce catalog #34021) (prepared by mixing kit reagents 1:1) (100 uL) was added per well. The plate was incubated for 20-30 minutes at room temperature in the dark, then Stop Solution (2 M sulfuric acid in water) (50 uL) was added per well. The plates were read at OD450 (experimental) and OD570 (reference).

SMILES	IC50
Cc1ccc2nc(C)c(-c3csc(Nc4ccc(I)cc4)n3)n2c1 [Cpd 76, 4-(2,6-dimethylimidazo[1,2-a]pyridin-3-yl)-N-(4-iodophenyl)-1,3-thiazol-2-amine]	< 500 nM
Cc1ccc2nc(C)c(-c3csc(Nc4ccc(Br)cc4)n3)n2c1 [Cpd 77, N-(4-bromophenyl)-4-(2,6-dimethylimidazo[1,2-a]pyridin-3-yl)-1,3-thiazol-2-amine]	< 500 nM
Cc1ccc2nc(C)c(-c3csc(Nc4ccc(Cl)cc4)n3)n2c1 [Cpd 78, N-(4-chlorophenyl)-4-(2,6-dimethylimidazo[1,2-a]pyridin-3-yl)-1,3-thiazol-2-amine]	< 500 nM
Ic1ccc(Nc2nc(-c3cnc4ccccn34)cs2)cc1 [Cpd 79, 4-(imidazo[1,2-a]pyridin-3-yl)-N-(4-iodophenyl)-1,3-thiazol-2-amine]	< 500 nM
Cc1nc2ncccn2c1-c1csc(N(C)c2ccc(Br)cc2)n1 [Cpd 80, N-(4-bromophenyl)-N-methyl-4-(2-methylimidazo[1,2-a]pyrimidin-3-yl)-1,3-thiazol-2-amine]	< 500 nM
Cc1nc2ccc(Br)cn2c1-c1csc(Nc2ccc(N(C)C)cc2)n1 [Cpd 81, N′-[4-(6-bromo-2-methylimidazo[1,2-a]pyridin-3-yl)-1,3-thiazol-2-yl]-N,N-dimethylbenzene-1,4-diamine]	< 500 nM
Cc1nc2ccc(Br)cn2c1-c1csc(Nc2ccc3c(c2)OCO3)n1 [Cpd 82, N-(1,3-benzodioxol-5-yl)-4-(6-bromo-2-methylimidazo[1,2-a]pyridin-3-yl)-1,3-thiazol-2-amine]	< 500 nM
Ic1ccc(Nc2nc(-c3cnc4ncccn34)cs2)cc1 [Cpd 83, 4-(imidazo[1,2-a]pyrimidin-3-yl)-N-(4-iodophenyl)-1,3-thiazol-2-amine]	500 to 1000 nM
COc1ccc(Nc2nc(-c3c(C)nc4ncccn34)cs2)cc1OC [Cpd 84, N-(3,4-dimethoxyphenyl)-4-(2-methylimidazo[1,2-a]pyrimidin-3-yl)-1,3-thiazol-2-amine]	< 500 nM
Cc1ccc(Nc2nc(-c3c(C)nc4ncccn34)cs2)cc1 [Cpd 85, 4-(2-methylimidazo[1,2-a]pyrimidin-3-yl)-N-(4-methylphenyl)-1,3-thiazol-2-amine]	< 500 nM
CCc1ccc(Nc2nc(-c3c(C)nc4ncccn34)cs2)cc1 [Cpd 86, N-(4-ethylphenyl)-4-(2-methylimidazo[1,2-a]pyrimidin-3-yl)-1,3-thiazol-2-amine]	< 500 nM
Cc1nc2ncccn2c1-c1csc(Nc2ccc(C(C)C)cc2)n1 [Cpd 87, 4-(2-methylimidazo[1,2-a]pyrimidin-3-yl)-N-[4-(propan-2-yl)phenyl]-1,3-thiazol-2-amine]	< 500 nM
CCOc1ccc(Nc2nc(-c3c(C)nc4ccc(Cl)cn34)cs2)cc1 [Cpd 88, 4-(6-chloro-2-methylimidazo[1,2-a]pyridin-3-yl)-N-(4-ethoxyphenyl)-1,3-thiazol-2-amine]	< 500 nM
Cc1ccc(Nc2nc(-c3c(C)nc4ccc(Cl)cn34)cs2)cc1 [Cpd 89, 4-(6-chloro-2-methylimidazo[1,2-a]pyridin-3-yl)-N-(4-methylphenyl)-1,3-thiazol-2-amine]	< 500 nM

Now from value to molecule:

IC50	SMILES
< 500 nM	COc1cc(F)c(Nc2nc(-c3c(C)nc4ccccn34)cs2)c(F)c1 [Cpd 57, N-(2,6-difluoro-4-methoxyphenyl)-4-(2-methylimidazo[1,2-a]pyridin-3-yl)-1,3-thiazol-2-amine]
< 500 nM	Cc1nc2ccc(Cl)cn2c1-c1csc(Nc2ccc(N(C)C)cc2)n1 [Cpd 58, N′-[4-(6-chloro-2-methylimidazo[1,2-a]pyridin-3-yl)-1,3-thiazol-2-yl]-N,N-dimethylbenzene-1,4-diamine]
< 500 nM	COc1ccc(Nc2nc(-c3c(C)nc4ccc(Cl)cn34)cs2)cc1 [Cpd 59, 4-(6-chloro-2-methylimidazo[1,2-a]pyridin-3-yl)-N-(4-methoxyphenyl)-1,3-thiazol-2-amine]
< 500 nM	Cc1nc2ccc(Cl)cn2c1-c1csc(Nc2ccc(Cl)cc2)n1 [Cpd 60, 4-(6-chloro-2-methylimidazo[1,2-a]pyridin-3-yl)-N-(4-chlorophenyl)-1,3-thiazol-2-amine]
< 500 nM	Cc1nc2ccc(Cl)cn2c1-c1csc(Nc2ccc(Br)cc2)n1 [Cpd 61, N-(4-bromophenyl)-4-(6-chloro-2-methylimidazo[1,2-a]pyridin-3-yl)-1,3-thiazol-2-amine]
< 500 nM	CC(=O)c1ccc(Nc2nc(-c3c(C)nc4ccc(Cl)cn34)cs2)cc1 [Cpd 62, 1-(4-{[4-(6-chloro-2-methylimidazo[1,2-a]pyridin-3-yl)-1,3-thiazol-2-yl]amino}phenyl)ethanone]
< 500 nM	Cc1ccn2c(-c3csc(Nc4ccc5c(c4)OCO5)n3)c(C)nc2c1 [Cpd 63, N-(1,3-benzodioxol-5-yl)-4-(2,7-dimethylimidazo[1,2-a]pyridin-3-yl)-1,3-thiazol-2-amine]
< 500 nM	Cc1ccn2c(-c3csc(Nc4ccc(N(C)C)cc4)n3)c(C)nc2c1 [Cpd 64, N′-[4-(2,7-dimethylimidazo[1,2-a]pyridin-3-yl)-1,3-thiazol-2-yl]-N,N-dimethylbenzene-1,4-diamine]
< 500 nM	Cc1ccn2c(-c3csc(Nc4ccc(Cl)cc4)n3)c(C)nc2c1 [Cpd 65, N-(4-chlorophenyl)-4-(2,7-dimethylimidazo[1,2-a]pyridin-3-yl)-1,3-thiazol-2-amine]
< 500 nM	COc1ccc(Nc2nc(-c3c(C)nc4cc(C)ccn34)cs2)cc1F [Cpd 66, 4-(2,7-dimethylimidazo[1,2-a]pyridin-3-yl)-N-(3-fluoro-4-methoxyphenyl)-1,3-thiazol-2-amine]
< 500 nM	COc1ccc(Nc2nc(-c3c(C)nc4cc(C)ccn34)cs2)cc1Cl [Cpd 67, N-(3-chloro-4-methoxyphenyl)-4-(2,7-dimethylimidazo[1,2-a]pyridin-3-yl)-1,3-thiazol-2-amine]
< 500 nM	Cc1ccn2c(-c3csc(Nc4ccc(Br)cc4)n3)c(C)nc2c1 [Cpd 68, N-(4-bromophenyl)-4-(2,7-dimethylimidazo[1,2-a]pyridin-3-yl)-1,3-thiazol-2-amine]
< 500 nM	Cc1ccn2c(-c3csc(Nc4ccc(I)cc4)n3)c(C)nc2c1 [Cpd 69, 4-(2,7-dimethylimidazo[1,2-a]pyridin-3-yl)-N-(4-iodophenyl)-1,3-thiazol-2-amine]
< 500 nM	Cc1ccc2nc(C)c(-c3csc(Nc4ccc(N(C)C)cc4)n3)n2c1 [Cpd 70, N′-[4-(2,6-dimethylimidazo[1,2-a]pyridin-3-yl)-1,3-thiazol-2-yl]-N,N-dimethylbenzene-1,4-diamine]
< 500 nM	COc1ccc(Nc2nc(-c3c(C)nc4ccc(C)cn34)cs2)cc1 [Cpd 71, 4-(2,6-dimethylimidazo[1,2-a]pyridin-3-yl)-N-(4-methoxyphenyl)-1,3-thiazol-2-amine]
< 500 nM	Cc1ccc2nc(C)c(-c3csc(Nc4ccc5c(c4)OCO5)n3)n2c1 [Cpd 72, N-(1,3-benzodioxol-5-yl)-4-(2,6-dimethylimidazo[1,2-a]pyridin-3-yl)-1,3-thiazol-2-amine]
< 500 nM	COc1ccc(Nc2nc(-c3c(C)nc4ccc(C)cn34)cs2)cc1Cl [Cpd 73, N-(3-chloro-4-methoxyphenyl)-4-(2,6-dimethylimidazo[1,2-a]pyridin-3-yl)-1,3-thiazol-2-amine]
< 500 nM	COCCOc1ccc(Nc2nc(-c3c(C)nc4ccc(C)cn34)cs2)cc1 [Cpd 74, 4-(2,6-dimethylimidazo[1,2-a]pyridin-3-yl)-N-[4-(2-methoxyethoxy)phenyl]-1,3-thiazol-2-amine]
< 500 nM	CCN(CC)c1ccc(Nc2nc(-c3c(C)nc4ccc(C)cn34)cs2)cc1 [Cpd 75, N′-[4-(2,6-dimethylimidazo[1,2-a]pyridin-3-yl)-1,3-thiazol-2-yl]-N,N-diethylbenzene-1,4-diamine]
